Test results: patent publication US8609661B2, “Pyrimido-pyrrolo-quinoxalinedione inhibitors of cystic fibrosis transmembrane conductance regulator protein and uses therefor” (The Regents of the University of California, priority 2009, dated 2013)
Where two headings read alike, the source gives them in different places.

Molecular target: T1, human wildtype CFTR (Homo sapiens, UniProt P13569)
T1 construct: expressed in transfected cells; host or cells: Fischer rat thyroid (FRT) cells
Test: Fluorescence platereader assay of CFTR-mediated iodide influx (YFP quenching) in FRT cells
Type: cell-based
Settings: for inhibition at 5 µM / inhibition at 25 µM: FRT; for IC50: apparent IC50 from concentration-inhibition data, fluorescence platereader assay
Description: A. Cell lines and compounds—Fischer rat thyroid (FRT) cells co-expressing human wildtype CFTR and the halide indicator YFP-H148Q/1152L were generated as described (see, e.g., Ma et al., J. Clin. Invest. 110:1651-1658 (2002)). Cells were plated in 96-well black-walled microplates (Corning Costar) at a density of 20,000 cells per well in Coon's modified F12 medium supplemented with 5% fetal calf serum, 2 mM L-glutamine, 100 U/mL penicillin, and 100 μg/ml streptomycin. Assays were performed at 48 h after plating the cells when the cells were just confluent. For some experiments, measurements were made using T84 human intestinal epithelial cells and for other experiments, measurements were obtained using primary cultures of human bronchial epithelial cells, which were obtained and grown essentially as previously described (see, e.g., 3 and 27).
B. Compound Screening—Assays were performed using an automated screening platform (Beckman) equipped with FLUOStar fluorescence platereaders (BMG Lab Technologies, Offenburg, Germany) as described (see Ma et al., supra). Each well of a 96-well plate containing FRT cells was washed 3 times in PBS (300 μL/wash), leaving 50 μL PBS. […] After 15 min, 96-well plates were transferred to a plate reader for fluorescence assay. Each well was assayed individually for CFTR-mediated iodide influx by recording fluorescence continuously (200 ms per point) for 2 s (baseline) and then for 10 s after rapid addition of 160 μL of isosmolar PBS in which 137 mM chloride was replaced by iodide. The initial rate of iodide influx was computed from fluorescence data by non-linear regression.
Collections of synthetic and natural compounds were screened according to the screening procedures described in Example 2. A cell-based fluorescence assay was used in which CFTR inhibitors were identified by reduced iodide influx in FRT cells co-expressing human CFTR and a YFP halide sensor. CFTR was maximally activated by a mixture of agonists having different activating mechanisms. Inhibition of iodide influx was observed as reduced YFP fluorescence quenching in response to rapid iodide addition to each well of 96-well plates. […]

[1] = Table 2, screening, 5 μM, read-out: % Inhibition at 5 μM
[2] = Table 2, screening, 25 μM, read-out: % Inhibition at 25 μM
[3] = read-out: % inhibition at 25/5 μM (5 μM value), Table 1, 5 μM compound
[4] = read-out: % inhibition at 25/5 μM (25 μM value), Table 1, 25 μM compound

T1 sequence (P13569 whole entry): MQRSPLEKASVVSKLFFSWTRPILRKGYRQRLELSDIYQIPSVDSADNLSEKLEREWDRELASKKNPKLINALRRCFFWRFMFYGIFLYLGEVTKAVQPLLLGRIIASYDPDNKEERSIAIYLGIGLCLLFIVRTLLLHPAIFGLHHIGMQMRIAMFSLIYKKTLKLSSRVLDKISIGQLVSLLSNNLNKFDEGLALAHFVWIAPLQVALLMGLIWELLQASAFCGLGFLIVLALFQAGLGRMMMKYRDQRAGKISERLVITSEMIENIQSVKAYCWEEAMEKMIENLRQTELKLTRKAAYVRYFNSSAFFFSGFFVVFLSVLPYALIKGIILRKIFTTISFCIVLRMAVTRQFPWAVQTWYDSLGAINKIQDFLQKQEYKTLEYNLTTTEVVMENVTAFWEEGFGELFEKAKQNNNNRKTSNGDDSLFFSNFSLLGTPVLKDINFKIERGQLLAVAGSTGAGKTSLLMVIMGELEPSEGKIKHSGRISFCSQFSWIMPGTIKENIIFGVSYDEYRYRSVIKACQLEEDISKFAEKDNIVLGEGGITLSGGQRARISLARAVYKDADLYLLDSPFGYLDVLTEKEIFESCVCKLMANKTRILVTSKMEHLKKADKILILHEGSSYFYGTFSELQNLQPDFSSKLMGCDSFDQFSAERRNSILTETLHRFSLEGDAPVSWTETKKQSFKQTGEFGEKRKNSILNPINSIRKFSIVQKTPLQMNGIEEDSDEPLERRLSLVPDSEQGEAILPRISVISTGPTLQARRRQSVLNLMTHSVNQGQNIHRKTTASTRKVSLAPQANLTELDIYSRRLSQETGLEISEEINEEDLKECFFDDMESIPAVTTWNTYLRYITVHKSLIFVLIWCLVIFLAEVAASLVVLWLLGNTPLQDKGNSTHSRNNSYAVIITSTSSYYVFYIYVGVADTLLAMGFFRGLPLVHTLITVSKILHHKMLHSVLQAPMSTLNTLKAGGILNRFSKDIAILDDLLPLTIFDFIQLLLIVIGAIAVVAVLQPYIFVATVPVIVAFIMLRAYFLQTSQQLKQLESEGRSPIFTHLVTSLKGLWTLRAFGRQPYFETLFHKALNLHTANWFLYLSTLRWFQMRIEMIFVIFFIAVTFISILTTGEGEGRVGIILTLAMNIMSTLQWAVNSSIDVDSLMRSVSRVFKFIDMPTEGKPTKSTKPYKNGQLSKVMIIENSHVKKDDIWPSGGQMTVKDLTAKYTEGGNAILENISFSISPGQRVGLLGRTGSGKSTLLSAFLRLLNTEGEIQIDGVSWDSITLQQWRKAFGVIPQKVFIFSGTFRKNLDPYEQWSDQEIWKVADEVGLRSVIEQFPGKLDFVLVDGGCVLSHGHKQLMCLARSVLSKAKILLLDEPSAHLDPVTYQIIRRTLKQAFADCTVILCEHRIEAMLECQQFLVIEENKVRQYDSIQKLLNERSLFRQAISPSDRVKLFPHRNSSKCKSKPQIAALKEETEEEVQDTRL

| Structure (SMILES) | inhibition at 5 µM [1] [%] | inhibition at 25 µM [2] [%] | inhibition at 5 µM [3] [%] | inhibition at 25 µM [4] [%] | IC50 [µM] |
| --- | --- | --- | --- | --- | --- |
| Cc1ccc(C2Nc3ccccc3-n3c(-c4ccccc4F)c4c(=O)n(C)c(=O)n(C)c4c32)cc1 (centres unmarked) [PPQ-237, 7,9-Dimethyl-11-(2-fluorophenyl)-6-(4-methylphenyl)-5,6-dihydro-pyrimido[4′,5′-3,4]pyrrolo[1,2-a]quinoxaline-8,10-(7H,9H)-dione] | 20 | 58 | – | – | – |
| Cc1ccc(C2Nc3ccccc3-n3c(-c4ccccc4)c4c(=O)n(C)c(=O)n(C)c4c32)cc1 (centres unmarked) | < 10 | 38 | – | – | – |
| Cc1ccc(C2Nc3cc(C)c(C)cc3-n3c(-c4ccccc4)c4c(=O)n(C)c(=O)n(C)c4c32)o1 (centres unmarked) [PPQ-104, 2,3,7,9-Tetramethyl-11-phenyl-6-(5-methylfuran-2-yl)-5,6-dihydro-pyrimido[4′,5′-3,4]pyrrolo[1,2-a]quinoxaline-8,10-(7H,9H)-dione] | 84 | 90 | 84 | 90 | 0.8 |
| Cn1c(=O)c2c(-c3ccccc3F)n3c(c2n(C)c1=O)C(c1ccc(F)cc1)Nc1ccccc1-3 (centres unmarked) [PPQ-233, 7,9-Dimethyl-11-(2-fluorophenyl)-6-(4-fluorophenyl)-5,6-dihydro-pyrimido[4′,5′-3,4]pyrrolo[1,2-a]quinoxaline-8,10-(7H,9H)-dione] | 28 | 82 | – | – | – |
| Cc1cccc(-c2c3c(=O)n(C)c(=O)n(C)c3c3n2-c2ccccc2NC3c2ccc3c(c2)OCO3)c1 (centres unmarked) [PPQ-302, 7,9-Dimethyl-11-(3-methylphenyl)-6-(1,3-benzodioxol-5-yl)-5,6-dihydro-pyrimido[4′,5′-3,4]pyrrolo[1,2-a]quinoxaline-8,10-(7H,9H)-dione] | 26 | 63 | – | – | – |
| CCOc1ccc(C2Nc3ccccc3-n3c(-c4ccccc4C)c4c(=O)n(C)c(=O)n(C)c4c32)cc1 (centres unmarked) | < 10 | 32 | – | – | – |
| COc1cccc(C2Nc3ccccc3-n3c(-c4ccccc4C)c4c(=O)n(C)c(=O)n(C)c4c32)c1 (centres unmarked) [PPQ-216, 7,9-Dimethyl-11-(2-methylphenyl)-6-(3-methoxyphenyl)-5,6-dihydro-pyrimido[4′,5′-3,4]pyrrolo[1,2-a]quinoxaline-8,10-(7H,9H)-dione] | 62 | > 95 | 62 | – | 3 |
| Cn1c(=O)c2c(-c3ccccc3)n3c(c2n(C)c1=O)C(c1cccs1)Nc1ccccc1-3 (centres unmarked) [PPQ-113, 7,9-Dimethyl-11-phenyl-6-(thienyl-2-yl)-5,6-dihydro-pyrimido[4′,5′-3,4]pyrrolo[1,2-a]quinoxaline-8,10-(7H,9H)-dione] | 34 | 77 | – | – | – |
| C=CCc1cccc(C2Nc3ccccc3-n3c(-c4ccccc4)c4c(=O)n(C)c(=O)n(C)c4c32)c1O (centres unmarked) | < 10 | 31 | – | – | – |
| Cn1c(=O)c2c(-c3ccccc3)n3c(c2n(C)c1=O)C(c1ccc(O)cc1)Nc1ccccc1-3 (centres unmarked) [PPQ-207, 7,9-Dimethyl-11-phenyl-6-(4-hydroxyphenyl)-5,6-dihydro-pyrimido[4′,5′-3,4]pyrrolo[1,2-a]quinoxaline-8,10-(7H,9H)-dione] | 64 | 86 | 64 | 86 | 4.5 |
| Cc1ccccc1-c1c2c(=O)n(C)c(=O)n(C)c2c2n1-c1ccccc1NC2c1ccc(O)c(O)c1 (centres unmarked) | < 10 | 38 | – | – | – |
| Cc1cc2c(cc1C)-n1c(-c3ccccc3)c3c(=O)n(C)c(=O)n(C)c3c1C(c1cccs1)N2 (centres unmarked) [PPQ-115, 2,3,7,9-Tetramethyl-11-phenyl-6-(thienyl-2-yl)-5,6-dihydro-pyrimido[4′,5′-3,4]pyrrolo[1,2-a]quinoxaline-8,10-(7H,9H)-dione] | 14 | 61 | – | – | – |
| Cn1c(=O)c2c(-c3ccccc3)n3c(c2n(C)c1=O)C(c1ccc(F)cc1)Nc1ccccc1-3 (centres unmarked) [PPQ-249, 7,9-Dimethyl-11-phenyl-6-(4-fluorophenyl)-5,6-dihydro-pyrimido[4′,5′-3,4]pyrrolo[1,2-a]quinoxaline-8,10-(7H,9H)-dione] | 21 | 64 | – | – | – |
| Cc1ccccc1-c1c2c(=O)n(C)c(=O)n(C)c2c2n1-c1ccccc1NC2c1ccccc1 (centres unmarked) [PPQ-218, 7,9-Dimethyl-11-(2-methylphenyl)-6-phenyl-5,6-dihydro-pyrimido[4′,5′-3,4]pyrrolo[1,2-a]quinoxaline-8,10-(7H,9H)-dione] | 41 | 94 | – | – | 5 |
| Cc1cccc(-c2c3c(=O)n(C)c(=O)n(C)c3c3n2-c2ccccc2NC3c2cccc([N+](=O)[O-])c2F)c1 (centres unmarked) [PPQ-212, 7,9-Dimethyl-11-(3-methylphenyl)-6-(2-fluoro-3-nitrophenyl)-5,6-dihydro-pyrimido[4′,5′-3,4]pyrrolo[1,2-a]quinoxaline-8,10-(7H,9H)-dione] | – | – | – | – | 2 |
| COc1cc(O)ccc1C1Nc2ccccc2-n2c(-c3ccccc3F)c3c(=O)n(C)c(=O)n(C)c3c21 (centres unmarked) | < 10 | 41 | – | – | – |
| Cc1cccc(-c2c3c(=O)n(C)c(=O)n(C)c3c3n2-c2ccccc2NC3c2ccc(O)c(O)c2)c1 (centres unmarked) [PPQ-243, 7,9-Dimethyl-11-(3-methylphenyl)-6-(3,4-dihydroxyphenyl)-5,6-dihydro-pyrimido[4′,5′-3,4]pyrrolo[1,2-a]quinoxaline-8,10-(7H,9H)-dione] | 12 | 72 | – | – | – |
| COc1ccc(C2Nc3ccccc3-n3c(-c4ccc(Cl)cc4)c4c(=O)n(C)c(=O)n(C)c4c32)cc1 (centres unmarked) | < 10 | 31 | – | – | – |
| Cn1c(=O)c2c(-c3ccccc3F)n3c(c2n(C)c1=O)C(c1cccc(Cl)c1)Nc1ccccc1-3 (centres unmarked) [PPQ-214, 7,9-Dimethyl-11-(2-fluorophenyl)-6-(3-chlorophenyl)-5,6-dihydro-pyrimido[4′,5′-3,4]pyrrolo[1,2-a]quinoxaline-8,10-(7H,9H)-dione] | 70 | > 95 | 70 | – | 2.5 |
| Cn1c(=O)c2c(-c3ccccc3)n3c(c2n(C)c1=O)C(c1ccccc1F)Nc1ccccc1-3 (centres unmarked) [PPQ-205, 7,9-Dimethyl-11-phenyl-6-(2-fluorophenyl)-5,6-dihydro-pyrimido[4′,5′-3,4]pyrrolo[1,2-a]quinoxaline-8,10-(7H,9H)-dione] | 61 | 81 | 61 | 81 | 2 |
| COc1ccc(-c2c3c(=O)n(C)c(=O)n(C)c3c3n2-c2ccccc2NC3c2cccs2)cc1 (centres unmarked) | < 10 | 34 | – | – | – |
| Cn1c(=O)c2c(-c3ccccc3)n3c(c2n(C)c1=O)C(c1ccc2c(c1)OCO2)Nc1ccccc1-3 (centres unmarked) [PPQ-301, 7,9-Dimethyl-11-phenyl-6-(1,3-benzodioxol-5-yl)-5,6-dihydro-pyrimido[4′,5′-3,4]pyrrolo[1,2-a]quinoxaline-8,10-(7H,9H)-dione] | 28 | 58 | – | – | – |
| COc1ccc(O)c(C2Nc3ccccc3-n3c(-c4ccccc4C)c4c(=O)n(C)c(=O)n(C)c4c32)c1 (centres unmarked) | < 10 | 38 | – | – | – |
